# Patent USRE42890E1, “Furazanobenzimidazoles” (Basilea Pharmaceutica AG, priority 2003, dated 2011)
# Like-named read-outs stand apart in the source and are kept apart here.
# Tests used:
# Jily = experiment: MTS proliferation assay, Jily; assay type: cell-based; conditions: 72 h incubation, read-out: MTS proliferation assay IC 50 Jily
# Method in brief: (§1)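 Proliferation is followed by MTS conversion, measured as absorbance at 492 nm. Cells are exposed for 72 h to four fixed compound concentrations (10 μM down to 0.3 μM) under 37° C, 7.5% CO2 culture conditions.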
# Jurkat = experiment: MTS proliferation assay, Jurkat; assay type: cell-based, human; conditions: 72 h incubation, read-out: MTS proliferation assay IC 50 Jurkat
# Method in brief: (§2)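 A 72 h exposure to compound (final 0.3–10 μM, four levels) was followed by 3 h MTS incubation and an A492 read.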
# MRC5 = experiment: MTS proliferation assay, MRC5; assay type: cell-based; conditions: MRC5, 72 h incubation, read-out: MTS proliferation assay IC 50 MRC5
# Method in brief: as §1
# HeLa = experiment: MTS proliferation assay, HeLa; assay type: cell-based, human; conditions: 72 h incubation, read-out: MTS proliferation assay IC 50 HeLa
# Method in brief: as §2
# HT1080 = experiment: MTS proliferation assay, HT1080; assay type: cell-based, human; conditions: HT1080, 72 h incubation, read-out: MTS proliferation assay IC 50 HT1080
# Method in brief: as §2
# [1] = test system: adherent cells or suspension cells; experiment: Hoechst 33342 nuclear staining (fraction of apoptotic nuclei); assay type: cell-based; set-up: key: 0 relating to no activity; 1 relating to weak activity comprising less than 70% of the cells; score 2 relating to strong activity comprising more than 70% of the cells
SMILES,IC50 (Jily) [nM],"Hoechst 33342 nuclear staining score ([1]; H460, conc 0.01 μm)","Hoechst 33342 nuclear staining score ([1]; H460, conc 0.1 μm)","Hoechst 33342 nuclear staining score ([1]; H460, conc 1 μm)","Hoechst 33342 nuclear staining score ([1]; HeLa, conc 0.01 μm)","Hoechst 33342 nuclear staining score ([1]; HeLa, conc 0.1 μm)","Hoechst 33342 nuclear staining score ([1]; HeLa, conc 1 μm)","Hoechst 33342 nuclear staining score ([1]; Jily, conc 0.01 μm)","Hoechst 33342 nuclear staining score ([1]; Jily, conc 0.1 μm)","Hoechst 33342 nuclear staining score ([1]; Jily, conc 1 μm)","Hoechst 33342 nuclear staining score ([1]; Jurkat, conc 0.01 μm)","Hoechst 33342 nuclear staining score ([1]; Jurkat, conc 0.1 μm)","Hoechst 33342 nuclear staining score ([1]; Jurkat, conc 1 μm)","Hoechst 33342 nuclear staining score ([1]; MRC5, conc 0.01 μm)","Hoechst 33342 nuclear staining score ([1]; MRC5, conc 0.1 μm)","Hoechst 33342 nuclear staining score ([1]; MRC5, conc 1 μm)","Hoechst 33342 nuclear staining score ([1]; PBLs, conc 0.01 μm)","Hoechst 33342 nuclear staining score ([1]; PBLs, conc 0.1 μm)","Hoechst 33342 nuclear staining score ([1]; PBLs, conc 1 μm)",IC50 (Jurkat) [nM],other results
"COCOc1ccc(C(=O)Cn2c(-c3nonc3N)nc3ccccc32)cc1OC [Example 15, 4-[1-(3-Methoxy-4-methoxymethoxy-phenacyl)-1H-benzimidazol-2-yl]-furazan-3-ylamine]",< 10,2 (score 2 relating to strong activity comprising more than 70% of the cells),2 (score 2 relating to strong activity comprising more than 70% of the cells),2 (score 2 relating to strong activity comprising more than 70% of the cells),1 (1 relating to weak activity comprising less than 70% of the cells),2 (score 2 relating to strong activity comprising more than 70% of the cells),2 (score 2 relating to strong activity comprising more than 70% of the cells),2 (score 2 relating to strong activity comprising more than 70% of the cells),2 (score 2 relating to strong activity comprising more than 70% of the cells),2 (score 2 relating to strong activity comprising more than 70% of the cells),2 (score 2 relating to strong activity comprising more than 70% of the cells),2 (score 2 relating to strong activity comprising more than 70% of the cells),2 (score 2 relating to strong activity comprising more than 70% of the cells),0,1 (1 relating to weak activity comprising less than 70% of the cells),2 (score 2 relating to strong activity comprising more than 70% of the cells),0,0,0,–,"IC50 (Jurkat; Homo sapiens): < 10 nM; IC50 (MRC5; Homo sapiens): < 10 nM; IC50 (HeLa; Homo sapiens): 10 to 100 nM; IC50 (HT1080; Homo sapiens, HT-1080): < 10 nM"
Nc1ccc(OCn2c(-c3nonc3N)nc3ccccc32)cc1 [Example 99],100 to 1000,0,0,0,0,0,0,0,0,1 (1 relating to weak activity comprising less than 70% of the cells),0,0,1 (1 relating to weak activity comprising less than 70% of the cells),0,0,0,0,0,0,100 to 1000,IC50 (MRC5): > 1000 nM; IC50 (HeLa): > 1000 nM; IC50 (HT1080): > 1000 nM
Nc1ccc(C(=O)Cn2c(-c3nonc3N)nc3ccccc32)cc1 [Example 50],10 to 100,1 (1 relating to weak activity comprising less than 70% of the cells),2 (score 2 relating to strong activity comprising more than 70% of the cells),2 (score 2 relating to strong activity comprising more than 70% of the cells),0,2 (score 2 relating to strong activity comprising more than 70% of the cells),2 (score 2 relating to strong activity comprising more than 70% of the cells),2 (score 2 relating to strong activity comprising more than 70% of the cells),2 (score 2 relating to strong activity comprising more than 70% of the cells),2 (score 2 relating to strong activity comprising more than 70% of the cells),2 (score 2 relating to strong activity comprising more than 70% of the cells),2 (score 2 relating to strong activity comprising more than 70% of the cells),2 (score 2 relating to strong activity comprising more than 70% of the cells),0,2 (score 2 relating to strong activity comprising more than 70% of the cells),2 (score 2 relating to strong activity comprising more than 70% of the cells),0,0,0,10 to 100,IC50 (MRC5): 10 to 100 nM; IC50 (HeLa): 10 to 100 nM; IC50 (HT1080): 10 to 100 nM
